What was measured:
[1] = system: rat primary cerebellar neurons (CBN); experiment: Neurite length of cerebellar neurons in in vitro hypoxia condition; format: cell-based; conditions: hypoxia 24 hours, then treatment for additional 24 hrs
Experimental: To generate hypoxia condition as a SCI model in vitro, rat primary cerebellar neurons (CBN) were isolated from P3 pubs and plated on the PLL/Laminin coated well plate. After 3 days culture, the cells were incubated in hypoxia gas chamber (95% N2 and 5% 02) for 24 hours and then the cells were treated with Rm-PgP and PgP without rolipram. Cells treated with free rolipram dissolved in DMSO were used as a positive control and cells maintained under normal atmospheric conditions were used as a negative control. The cells were incubated an additional 24 hrs in hypoxia condition and then fixed for neurite length evaluation. The neurite lengths were measured using ImageJ software program after β-3 tubulin staining.

[2] = Sirolimus and heparin loading in PgP micelles; format: physicochemical; conditions: 0.45 μm filter
Experimental: 50 μl Hep-F (20 mg/ml) was added into PgP solution, followed by two more hours stirring. Methanol was allowed to evaporate overnight, and the solution was centrifuged at 15,000×RCF for 15 minutes. Supernatant containing unbound Hep-F was removed and the precipitated nanoparticle was collected, resuspended and then filtered using 0.45 μm sterile syringe filter to remove unloaded SR. The amount of Hep-F binding to PgP was measured using Hep-F standard curve. Fluorescence was measured using a microplate reader (Excitation: 494 nm Emission: 521 nm, Biotek, VT, USA). Loading efficiency for Hep was calculated as % loading efficiency=(amount of Hep bound to PgP/amount of Hep added to PgP)×100.
Sr-PgP-Hep was prepared sequential loading of SR and Hep in PgP. Briefly, SR solution (LC labs, USA) was loaded in the PgP using solvent evaporation method and Hep was added into SR-PgP solution. […] The amount of SR loaded in PgP micelles solution was measured by High Pressure Liquid Chromatography (HPLC) (Waters Corporation, USA) using SR standard curve prepared in acetonitrile (ACN). […] The loading efficiency was calculated as: % loading efficiency=amount of SR loaded/amount of SR added ×100. The amount of Hep bound to PgP was determined based on Hep-F loading as described above.

SR added in water without PgP, detection by HPLC after filtration [2] | SMILES | neurite length compared with normoxia [1]
– | COc1ccc(C2CNC(=O)C2)cc1OC1CCCC1 (centres unmarked) [free Rm, rolipram] | not significantly different
not detected | CO[C@H]1C[C@@H]2CC[C@@H](C)[C@@](O)(O2)C(=O)C(=O)N2CCCC[C@H]2C(=O)O[C@H]([C@H](C)C[C@@H]2CC[C@@H](O)[C@H](OC)C2)CC(=O)[C@H](C)/C=C(\C)[C@@H](O)[C@@H](OC)C(=O)[C@H](C)C[C@H](C)/C=C/C=C/C=C/1C [sirolimus] | –

Reference: patent US11633355B2, “Multi-functional particles and methods of using the same” (Clemson University Research Foundation, priority 2014, dated 2023)
